PubChem BioAssay (NCI)
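Results reflect a 48-hour exposure of cells in 96-well plates to compound at five concentrations. Abbreviation: GI50, concentration required for 50% inhibition of growth. The concentration for full growth arrest is given as TGI.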

Tests used:
Assay in all cases: inhibition of tumour cell growth, NCI panel, 48 h
OVCAR-5 ovarian = test system: OVCAR-5 ovarian
RXF 393 renal = test system: RXF 393 renal
MOLT-4 leukemia = test system: MOLT-4 leukemia
SW-620 colon = test system: SW-620 colon
NCI/ADR-RES ovarian = test system: NCI/ADR-RES ovarian
PC-3 prostate = test system: PC-3 prostate
SK-MEL-5 melanoma = test system: SK-MEL-5 melanoma
EKVX NSCLC = test system: EKVX NSCLC
CCRF-CEM leukemia = test system: CCRF-CEM leukemia
SK-MEL-2 melanoma = test system: SK-MEL-2 melanoma
T-47D breast = test system: T-47D breast
OVCAR-3 ovarian = test system: OVCAR-3 ovarian
HS 578T breast = test system: HS 578T breast
A549 NSCLC = test system: A549 NSCLC
HCT-116 colon = test system: HCT-116 colon
DU-145 prostate = test system: DU-145 prostate
HT29 colon = test system: HT29 colon
U251 CNS = test system: U251 CNS
MDA-MB-231 breast = test system: MDA-MB-231 breast
RPMI-8226 leukemia = test system: RPMI-8226 leukemia
OVCAR-8 ovarian = test system: OVCAR-8 ovarian
KM12 colon = test system: KM12 colon
HOP-62 NSCLC = test system: HOP-62 NSCLC
HCC-2998 colon = test system: HCC-2998 colon
NCI-H23 lung = test system: NCI-H23 lung
SF-539 CNS = test system: SF-539 CNS
SR leukemia = test system: SR leukemia
UACC-62 melanoma = test system: UACC-62 melanoma

## C[C@@H]1CC[C@@H]2[C@@H]1[C@H](OC(=O)c1ccc3ccccc3c1)[C@]1(C3CCCCC3)C[C@@H](OC(=O)CO)[C@@]2(C)O1
OVCAR-5 ovarian
  GI50: 14.8 µM
  TGI: 30 µM
RXF 393 renal
  GI50: 70.2 nM
  TGI: 8.25 µM
MOLT-4 leukemia
  GI50: 5.16 µM
  TGI: 21.3 µM
SW-620 colon
  GI50: 13 µM
  TGI: 30.4 µM
NCI/ADR-RES ovarian
  GI50: 543 nM
  TGI: 19.4 µM
PC-3 prostate
  GI50: 4.2 µM
  TGI: 19.2 µM
SK-MEL-5 melanoma
  GI50: 14 µM
  TGI: 27.4 µM
EKVX NSCLC
  GI50: 11.4 µM
  TGI: 26.7 µM
CCRF-CEM leukemia
  GI50: 5.36 µM
  TGI: 23.6 µM
SK-MEL-2 melanoma
  GI50: 15.3 µM
  TGI: 30.8 µM
T-47D breast
  GI50: 3.33 µM
  TGI: 15.1 µM
OVCAR-3 ovarian
  GI50: 12.9 µM
  TGI: 27.1 µM
HS 578T breast
  GI50: 23 nM
  TGI: 75.7 nM
A549 NSCLC
  GI50: 8.12 µM
  TGI: 21.7 µM
HCT-116 colon
  GI50: 6.46 µM
  TGI: 19.6 µM
DU-145 prostate
  GI50: 12.2 µM
  TGI: 25.9 µM
HT29 colon
  GI50: 4.38 µM
  TGI: 18.3 µM
U251 CNS
  GI50: 10.9 µM
  TGI: 23 µM
MDA-MB-231 breast
  GI50: 13.6 µM
  TGI: 29.3 µM
RPMI-8226 leukemia
  GI50: 5.03 µM
  TGI: 22.8 µM
OVCAR-8 ovarian
  GI50: 5.62 µM
  TGI: 26.5 µM
KM12 colon
  GI50: 11.1 µM
  TGI: 26.5 µM
HOP-62 NSCLC
  GI50: 12.8 µM
  TGI: 25.6 µM
HCC-2998 colon
  GI50: 11.8 µM
  TGI: 28.1 µM
NCI-H23 lung
  GI50: 14.3 µM
  TGI: 33.2 µM
SF-539 CNS
  GI50: 13.7 µM
  TGI: 27.9 µM
SR leukemia
  GI50: 3.4 µM
  TGI: 14.4 µM
UACC-62 melanoma
  GI50: 14.3 µM
  TGI: 28.5 µM
